Source: PMC7766225, “Structure-Based Discovery and Bioactivity Evaluation of Novel Aurora-A Kinase Inhibitors as Anticancer Agents via Docking-Based Comparative Intermolecular Contacts Analysis (dbCICA)” (Molecules, 2020)
Values joined by “and” are separate entries in the source; they are usually repeats but may differ in a detail not shown here. Equal values may be shown once.

How the values were obtained:
Fibroblasts = experiment: MTT cytotoxicity assay on normal fibroblasts (safety index); assay type: cell-based; details: Homo sapiens, Fibroblast, 72 h
Procedure: (§1) The human cell-lines triple negative breast adenocarcinoma MDA-MB-231, Pancreas adenocarcinoma PANC1, ductal breast carcinoma T-47D and fibroblasts were preserved and expanded in DMEM medium, while the prostate adenocarcinoma PC-3 cells were cultured in RPMI-1640 growth medium. All growth media were supplemented with 10% heat-inactivated fetal bovine serum (FBS). Cells were maintained under standard culture conditions at 37 °C, 5% CO2 in a humidified incubator. At 80% confluency, cells were washed with 5 mL phosphate buffer saline (1X PBS), then incubated for 4 min with 2–3 mL Trypsin-EDTA 0.25% in order to obtain suspended cells and collect them in a known volume of fresh media for cell count. Cells were counted using conventional hemocytometer and trypan blue dye method.
(§2) The five potent hits that have shown anti-Aurora-A Kinase inhibition percentages above 51% at 10 μM upon conducting the kinase enzyme Inhibition assay (Table 5) were further validated using MTT cytotoxicity Assay. This assay includes 3-(4,5-Dimethylthiazol-2-yl)-2,5-diphenyl tetrazolium bromide (MTT) dye, which is a yellowish tetrazole reduced by viable cells into formazan purple color, which detects the normal mitochondrial role in viable cells. In 96-well coated flat bottom microplates, 100 μL cell suspension of PANC1 or T-47D cells were seeded at a density of 7000 cell/well, and 6000 cell/well for MDA-MB-231, PC-3, or fibroblasts, and incubated under the same conditions at 37 °C. After 24 h, each well was treated with the intended drug concentration diluted in 200 μL fresh media after removal of the old 100-μL media. After 72 h incubation, drug-containing media was aspirated and on each well 100 μL phenol-red free media and 15-μL MTT solution (5 mg/mL (wt/vol) PBS). After 3 h of dark incubation at 37 °C, MTT and media were carefully withdrawn from each well, and 200 μL/well DMSO were added. Colorimetric absorbance (OD) was measured at 570 nm wavelength using 96-well plate reader (Tecan-Sunrise, Männedorf, Switzerland).
(§3) The five compounds were prepared in a stock concentrate of 10 mM using cell culture grade DMSO to be utilized in MTT assay. The cytotoxicity of each compound was initially screened on cancer cell-lines at two concentrations: 50 μM and 25 μM in duplicates. […] The safety index for the compounds with specified IC50 values was evaluated via determining their IC50 values against normal Fibroblast cells. It is noteworthy to mention that DMSO concentration was constant on all the wells (i.e., (0.5% v/v or 1 μL/200 μL) per well), for the treated and the control ones. IC50 values were calculated using nonlinear regression of the dose–response curves using GraphPad Prism software 7.03.

PANC1 cells = experiment: MTT cytotoxicity/anti-proliferation assay, PANC1; assay type: cell-based, human; details: for IC50: Panc1, 72 h; for inhibition at 25 µM / inhibition at 50 µM: PANC-1, 72 h; for inhibition at 25 µM: Panc1, 25 µM; for inhibition at 50 µM: Panc1, 50 µM
Procedure: as §1, §2, §3

Aurora-A kinase = target: T1, Aurora-A kinase (Homo sapiens, UniProt O14965); experiment: FRET-based Z'-LYTE kinase enzyme inhibition assay; assay type: biochemical
T1 construct: purchased Invitrogen (Carlsbad, CA, USA)
T1 sequence (O14965 1-403): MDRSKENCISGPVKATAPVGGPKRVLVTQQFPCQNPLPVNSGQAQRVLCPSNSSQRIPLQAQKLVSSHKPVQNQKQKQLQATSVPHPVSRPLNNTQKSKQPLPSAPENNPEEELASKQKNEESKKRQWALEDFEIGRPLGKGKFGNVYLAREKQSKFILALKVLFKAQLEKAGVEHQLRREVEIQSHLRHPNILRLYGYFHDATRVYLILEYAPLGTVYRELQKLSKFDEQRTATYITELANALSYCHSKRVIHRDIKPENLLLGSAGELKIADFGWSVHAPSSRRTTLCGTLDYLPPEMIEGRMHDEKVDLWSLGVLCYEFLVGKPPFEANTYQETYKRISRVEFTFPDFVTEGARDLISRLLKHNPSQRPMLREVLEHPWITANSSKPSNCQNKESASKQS
Procedure: This bioassay was conducted using Z′-LYTE® kinase assay (Invitrogen, Carlsbad, CA, USA) [68, 69]. This biochemical assay depends on fluorescence emission as detection method utilizing a synthetic fluorescence resonance energy transfer (FRET) peptide with two fluorophores: coumarin that work as donor and fluorescein as acceptor [69]. Each hit or compound was dissolved in DMSO to form 10 mM stock solution. Hits were screened at 10 μM concentration. The bioassay was performed in black 384-well plate. For each assay, 100 nL of tested compound stock solution (10 mM) was mixed with 2.4 μL kinase buffer, 5 μL (peptide substrate/Aurora-A Kinase) mixture, and 2.5 μL ATP solution.
The tests were conducted in duplicates.

MDA-MB-231 cells = experiment: MTT cytotoxicity/anti-proliferation assay, MDA-MB-231; assay type: cell-based, human; details: for IC50: MDA-MB-231, 72 h; for inhibition at 25 µM: MDA-MB-231, 25 µM; for inhibition at 25 µM / inhibition at 50 µM: 72 h; for inhibition at 50 µM: MDA-MB-231, 50 µM
Procedure: as §1, §2, §3

T-47D cells = experiment: MTT cytotoxicity/anti-proliferation assay, T-47D; assay type: cell-based; details: Homo sapiens, T47D, 72 h
Procedure: as §1, §2, §3

PC-3 cells = experiment: MTT cytotoxicity/anti-proliferation assay, PC-3; assay type: cell-based; details: Homo sapiens; for IC50: PC-3, 72 h; for inhibition at 25 µM: PC-3, 25 µM; for inhibition at 25 µM / inhibition at 50 µM: 72 h; for inhibition at 50 µM: PC-3, 50 µM
Procedure: as §1, §2, §3

[1] = system: PANC1, PC-3, T-47D and MDA-MB-231 cancer cells; experiment: MTT anti-proliferative assay, four cancer cell lines together; assay type: cell-based; details: Homo sapiens; 72 h of incubation; read-out: IC50 values against PANC1, PC-3, T-47D and MDA-MB-231 (range over cell lines)
Procedure: The human cell-lines triple negative breast adenocarcinoma MDA-MB-231, Pancreas adenocarcinoma PANC1, ductal breast carcinoma T-47D and fibroblasts were preserved and expanded in DMEM medium, while the prostate adenocarcinoma PC-3 cells were cultured in RPMI-1640 growth medium. All growth media were supplemented with 10% heat-inactivated fetal bovine serum (FBS). Cells were maintained under standard culture conditions at 37 °C, 5% CO2 in a humidified incubator. […] Cells were counted using conventional hemocytometer and trypan blue dye method. […] In 96-well coated flat bottom microplates, 100 μL cell suspension of PANC1 or T-47D cells were seeded at a density of 7000 cell/well, and 6000 cell/well for MDA-MB-231, PC-3, or fibroblasts, and incubated under the same conditions at 37 °C. After 24 h, each well was treated with the intended drug concentration diluted in 200 μL fresh media after removal of the old 100-μL media. […] Colorimetric absorbance (OD) was measured at 570 nm wavelength using 96-well plate reader (Tecan-Sunrise, Männedorf, Switzerland). […] The safety index for the compounds with specified IC50 values was evaluated via determining their IC50 values against normal Fibroblast cells. […] IC50 values were calculated using nonlinear regression of the dose–response curves using GraphPad Prism software 7.03.

[2] = system: xenograft models of various cancer types; design: method as in PMID 19369091, PMID 14981513, PMID 18160664; details: cited from earlier work

## COc1ccc(C(=O)C2=NON3O[C@@]23C(=O)c2ccc(OC)cc2)cc1 (stereo partly shown) [Hit 85]
Fibroblasts
  inhibition at 25 µM: 45.4 ± 0.05%
  inhibition at 50 µM: 83.4 ± 0.01%
  IC50: 27.5 ± 1.5 µM
PANC1 cells; Homo sapiens, PANC-1, 72 h
  IC50: 3.5 µM
PANC1 cells; Homo sapiens
  inhibition at 25 µM: 92.97 ± 0.004%
  inhibition at 50 µM: 94.1 ± 0.001%
PANC1 cells
  IC50: 3.54 ± 0.11 µM
Aurora-A kinase; IC50, 0.1–100 μM, duplicates, nonlinear regression
  IC50: 4.29 µM and 4.3 µM
Aurora-A kinase; dose-response curve, GraphPad Prism
  Hill Slope: 1.70
Aurora-A kinase; read-out: % Inhibition at 10 µM
  inhibition at 10 µM: 56%
MDA-MB-231 cells; Homo sapiens
  IC50: 11 ± 0.43 µM
  inhibition at 25 µM: 82.3 ± 0.006%
  inhibition at 50 µM: 87.7 ± 0.001%
T-47D cells
  inhibition at 25 µM: 84.6 ± 0.002%
  inhibition at 50 µM: 86 ± 0.002%
  IC50: 8.8 ± 0.74 µM
PC-3 cells
  IC50: 8.2 ± 1.4 µM
  inhibition at 25 µM: 77 ± 0.007%
  inhibition at 50 µM: 87.3 ± 0.003%
[1]
  IC50: 3.5 to 11 µM

## Cc1cc(Nc2cc(N3CCN(C)CC3)nc(Sc3ccc(NC(=O)C4CC4)cc3)n2)[nH]n1 [Tozasertib/(VX-680), Tozasertib, reference compound]
Fibroblasts
  inhibition at 25 µM: 85 ± 0.006%
  inhibition at 50 µM: 89 ± 0.005%
  IC50: 9.2 ± 0.6 µM
PANC1 cells; Homo sapiens, PANC-1, 72 h
  IC50: ~7.6 µM
PANC1 cells; Homo sapiens
  inhibition at 25 µM: 80.9 ± 0.005%
  inhibition at 50 µM: 89.3 ± 0.015%
[2]
  reduced the tumor size: 22–98%
MDA-MB-231 cells; Homo sapiens
  IC50: ~7.6 µM
  inhibition at 25 µM: 81 ± 0.008%
  inhibition at 50 µM: 87 ± 0.007%
MDA-MB-231 cells
  IC50: 7.7 ± 0.65 µM
T-47D cells
  inhibition at 25 µM: 53.4 ± 0.02%
  inhibition at 50 µM: 80.9 ± 0.01%
  IC50: 17.9 ± 1.64 µM
PC-3 cells
  IC50: 21.4 ± 1.6 µM
  inhibition at 25 µM: 49.5 ± 0.006%
  inhibition at 50 µM: 68.7 ± 0.011%
